Laboratory results published in US9434769B2, “Peptide compositions and methods for inhibiting herpesvirus infection” (priority 2009, dated 2016).
Read-outs that look alike come from different tables or passages of the source.

What was measured:
HSV-1 McIntyre strain = test: Inhibition of HSV-1 infection of Vero cells (Crystal Violet staining); format: cell-based, Herpes Simplex Virus 1 (HSV-1); settings: MOI 0.001, peptide 2.5 to 100 μM, 48 hours
Protocol: FIG. 6 illustrates inhibition of HSV-1 infection by HCMV gB peptides. To evaluate the ability of newly designed HCMV gB-specific peptide to inhibit HSV-1 infection, Vero cells were infected for about 90 minutes at room temperature with HSV-1 (McIntyre strain; MOI=0.001) that was preincubated with a range of concentrations of four different synthetic peptides at about 37° C. for about 90 minutes. Each treatment was done in triplicate, where A=media, B=HSV-1 MOI of 0.001, C=100 μM peptide and virus, D=50 μM peptide and virus, E=25 μM peptide and virus, F=10 μM peptide and virus, G=5 μM peptide and virus, H=2.5 μM peptide and virus. HCMV gB peptides (Peptide 174-200 (SEQ ID NO: 3), Peptide 233-263 (SEQ ID NO: 4), and Peptide 264-291 (SEQ ID NO: 5)) that are within domain II were inhibitory against HSV-1 infection. Peptide 476-494 (SEQ ID NO: 7) corresponds to trimerization domain of HCMV gB that contains extended α-helices important in the formation of HCMV gB homotrimer during fusion of HCMV virion and lipid membrane of the host cell. Overlapping inhibitory HSV-1 peptides span regions 496-510 and 501-515 of HSV-1 gB (SEQ ID NO: 8) and are analogous to HCMV gB Peptide 476-494 (SEQ ID NO: 7).
To evaluate the ability of HCMV gB peptides to inhibit infection by HSV-1, Vero cells were plated at a density of about 1.5×10^5 cells in each well of a 24 well-plate 24 hours prior to infection. The cells were washed and mock- or virus-infected for about 90 minutes at room temperature with HSV-1 McIntyre strain (ATCC) of about 0.001 MOI preincubated with a range of concentrations of four different synthetic peptides at about 37° C. for about 90 minutes. After exposure to the virus, the virus mixture was removed and the cells were overlayed with 2% FBS MEM containing 1% methylcellulose. Cells were incubated for about 48 hours at about 37° C. After about 48 hours, the cells were fixed, stained with Crystal Violet, and air dried.
In FIG. 6, each treatment was done in triplicate, where A=media, B=HSV-1 MOI of 0.001, C=100 μM peptide and virus, D=50 μM peptide and virus, E=25 μM peptide and virus, F=10 μM peptide and virus, G=5 μM peptide and virus, H=2.5 μM peptide and virus. […] Peptide 476-494 (SEQ ID NO: 7) corresponds to the trimerization domain of HCMV gB, which contains extended α-helices important in the formation of HCMV gB homotrimer during fusion of HCMV virion and lipid membrane of the host cell. Overlapping inhibitory HSV-1 peptides that span regions 496-510 and 501-515 of the HSV-1 gB protein (SEQ ID NO: 8) are analogous to HCMV gB peptide 476-494 (SEQ ID NO: 7). As predicted, HCMV Peptide 476-494 (SEQ ID NO: 7) worked best at the concentration of about 2.5 μM.

HCMV TRpMIA = test: Inhibition of HCMV TRpMIA infection of HFF cells (IE-1/IE-2 positive cells); format: cell-based, Human Cytomegalovirus (HCMV); settings: for significance of inhibition of infection: vs non-treated infected control, 24 hours post-infection
Protocol: In order to assess the ability of the peptides of the present invention to inhibit a clinically significant HCMV (HCMV TRpMIA), Peptide 174-200 (SEQ ID NO:3), Peptide 233-263 (SEQ ID NO: 4), and Peptide 264-291 (SEQ ID NO: 5), were tested for inhibition of HCMV TRpMIA infection of HFF cells under the assay conditions similar to these described in Example 2 for the Towne strain of HCMV, above. In particular, HFF cells were plated in 96-well plates at a density of about 10,000 cells-per-well about 24 hours […]. Individual inhibitory peptides were evaluated against 0.5 MOI HCMV TRpMIA preincubated with various concentrations in the range of about 0.078 micromolar to about 100 micromolar. The results obtained from these assays are shown in FIG. 13, FIG. 14, and FIG. 15 for Peptide 174-200, Peptide 233-263, and Peptide 264-291, respectively. The degree of HCMV infection was determined by evaluating the number of cells expressing immediate-early 1 (IE-1) or IE-2 HCMV proteins 24 hours post-infection. Treatments resulting in significant reductions in the number of cells that were positive for IE 1, IE-2, or both, compared to non-treated control HCMV infected cells, are denoted by a * (p<0.05), ** (p<0.01), and *** (p<0.001, one-way ANOVA and Tukey's post test). Variants and derivatives of Peptide 233-263 (SEQ ID NO: 4) also were prepared and tested in the same assay. The sequences of the tested variants and derivatives are shown in Table 4, with additions or modifications from SEQ ID NO: 4 shown in boldface type.

Towne GFP strain of HCMV = format: cell-based, Human Cytomegalovirus (HCMV); settings: for inhibition of viral infection: HFF cells, MOI 0.5, 48 hours post infection
Protocol: The Towne strain of HCMV containing the Green Fluorescent Protein (GFP) expression cassette was obtained from Dr. Dan Streblow at the Oregon Health Science University and was propagated in human foreskin fibroblast (HFF) cells. Viral supernatants were collected, centrifuged to clear cell debris, and filtered through a 0.45 μm filter. HFF cells were grown in Dulbecco's modified Eagle medium (DMEM) supplemented with 10% fetal bovine serum (FBS), penicillin G (100 U/mL), streptomycin ([…]), and GLUTAMAX™ L-glutamine supplement (2 mM) from Invitrogen.
Human foreskin fibroblasts were seeded at the density of about 3.5×10^5 cells in each well of a 24-well plate about 24 hours prior to infection. The HFF cells were washed with 1×DPBS, and mock or virus infected for about 90 minutes at room temperature (RT) with the Towne GFP strain of HCMV at about 0.5 multiplicity of infection (MOI), preincubated with a range of concentrations of inhibitory peptides at about 37° C. for about 90 minutes. After the infection, virus mixture was removed and 10% FBS complete DMEM was added to each well and cells were incubated at about 37° C. for about 48 hours. GFP positive cells were visualized about 48 hours post infection by fluorescence microscopy and then quantified using flow cytometry. […] HFF cells were trypsinized, centrifuged, and resuspended in 1% FBS-Dulbecco's phosphate buffered saline (DPBS). GFP positive cells were quantified using flow cytometry (CYTOMICS FC 500 from Beckman Coulter, Fullerton, Calif.).
All of the synthetic peptides were tested at the following concentrations: about 100 μM, 50 μM, 25 μM, 10 μM, 5 μM, 2.5 μM, 1.25 μM, 0.625 μM, 0.3125 μM, 0.156 μM, and 0.078 μM.

HIV-1 = settings: cited from earlier work
[1] = pregnancy; cited from earlier work

Substance	inhibition of HSV-1 infection (HSV-1 McIntyre strain)	significance of inhibition of infection (HCMV TRpMIA; 5 micromolar)	significance of inhibition of infection (HCMV TRpMIA; 10 micromolar)	significance of inhibition of infection (HCMV TRpMIA; 25 micromolar)	significance of inhibition of infection (HCMV TRpMIA; 50 micromolar)	extent of inhibition of infection (HCMV TRpMIA; 50 to 100 micromolar)	significance of inhibition of infection (HCMV TRpMIA; 100 micromolar)	inhibition of infection seen in fluorescent and bright light images (FIG. 4) (Towne GFP strain of HCMV; 100 μM, MOI 0.5, 48 hours post-infection)	inhibition of viral infection (Towne GFP strain of HCMV; peptide 2.5 μM)	inhibition of viral infection (Towne GFP strain of HCMV; peptide 50 μM)	inhibition of viral infection (Towne GFP strain of HCMV; peptide 100 μM)	vertical transmission of HIV-1 in pregnancy (HIV-1)	crossing of the placenta [1]
WHSRGSTWLYRETANLNAMLTITTARSKYPY [Peptide 233-263]	inhibited HSV-1 infection	* (* (p<0.05))	*** (*** (p<0.001, one-way ANOVA and Tukey's post test))	*** (*** (p<0.001, one-way ANOVA and Tukey's post test))	*** (*** (p<0.001, one-way ANOVA and Tukey's post test))	almost complete inhibition	*** (*** (p<0.001, one-way ANOVA and Tukey's post test))	effectively inhibited infection of the cells	about 60%	about 92%	about 97%	–	–
enfuvirtide	–	–	–	–	–	–	–	–	–	–	–	prevents vertical transmission of HIV-1 in pregnancy	does not cross the placenta
